Measurements taken from patent US8952024B2, “Herbicidal pyrimidone derivatives” (E I du Pont de Nemours and Company, priority 2009, dated 2015).

Key:
Format in all cases: in vivo
[1] = tested on: barnyardgrass (Echinochloa crus-galli); test: Test B flooded paddy test; conditions: for Plant response rating, Barnyardgrass: Flood (flooded paddy test), 125 g ai/ha, scale 0 to 100, 0 is no effect, 100 is complete control, 13 to 15 days; for Barnyardgrass plant response rating: Flood, 31 g ai/ha, scale 0 to 100 (0 no effect, 100 complete control)
Summary of the method: (§1)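 Plants were grown to the 2-leaf stage, then pots were flooded to 3 cm above the soil and compounds were applied directly into the paddy water. That depth was held throughout. After 13 to 15 days in a greenhouse, injury was visually rated against controls on a 0–100 scale.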

rice (Oryza sativa) = test: Test B flooded paddy test; conditions: for Plant response rating, Rice: Flood (flooded paddy test), 125 g ai/ha, scale 0 to 100, 0 is no effect, 100 is complete control, 13 to 15 days; for Rice plant response rating: Flood, 31 g ai/ha, scale 0 to 100 (0 no effect, 100 complete control)
Summary of the method: as §1

[2] = tested on: umbrella sedge (Cyperus difformis); test: Test B flooded paddy test; conditions: for Plant response rating, Sedge, Umbrella: Flood (flooded paddy test), 125 g ai/ha, scale 0 to 100, 0 is no effect, 100 is complete control, 13 to 15 days; for Sedge, Umbrella plant response rating: Flood, 31 g ai/ha, scale 0 to 100 (0 no effect, 100 complete control)
Summary of the method: as §1

[3] = tested on: ducksalad (Heteranthera limosa); test: Test B flooded paddy test; conditions: for Plant response rating, Ducksalad: Flood (flooded paddy test), 125 g ai/ha, scale 0 to 100, 0 is no effect, 100 is complete control, 13 to 15 days; for Ducksalad plant response rating: Flood, 31 g ai/ha, scale 0 to 100 (0 no effect, 100 complete control)
Summary of the method: as §1

corn (Zea mays) = test: Test A pre-/postemergence plant response; conditions: for Corn plant response rating: visual injury, 0 to 100 scale (0 no effect, 100 complete control), approx. ten days
Summary of the method: (§2)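 Approximately ten days after concurrent pre- and postemergence spraying in a greenhouse, plants were compared with untreated controls and rated visually for injury, 0 = no effect to 100 = complete control. Preemergence spray was directed onto loam/sand soil; postemergence targeted 1–2 leaf seedlings.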

[4] = tested on: wheat (Triticum aestivum); test: Test A pre-/postemergence plant response; conditions: for Wheat plant response rating: visual injury, 0 to 100 scale (0 no effect, 100 complete control), approx. ten days
Summary of the method: as §2

[5] = tested on: barnyardgrass (Echinochloa crus-galli); test: Test A pre-/postemergence plant response; conditions: for Barnyardgrass plant response rating: visual injury, 0 to 100 scale (0 no effect, 100 complete control), approx. ten days
Summary of the method: as §2

[6] = tested on: giant foxtail (Setaria faberii); test: Test A pre-/postemergence plant response; conditions: for Foxtail, Giant plant response rating: visual injury, 0 to 100 scale (0 no effect, 100 complete control), approx. ten days
Summary of the method: as §2

[7] = tested on: morningglory (Ipomoea spp.); test: Test A pre-/postemergence plant response; conditions: for Morningglory plant response rating: visual injury, 0 to 100 scale (0 no effect, 100 complete control), approx. ten days
Summary of the method: as §2

[8] = tested on: pigweed (Amaranthus retroflexus); test: Test A pre-/postemergence plant response; conditions: for Pigweed plant response rating: visual injury, 0 to 100 scale (0 no effect, 100 complete control), approx. ten days
Summary of the method: as §2

[9] = tested on: velvetleaf (Abutilon theophrasti); test: Test A pre-/postemergence plant response; conditions: for Velvetleaf plant response rating: visual injury, 0 to 100 scale (0 no effect, 100 complete control), approx. ten days
Summary of the method: as §2

[10] = tested on: large crabgrass (Digitaria sanguinalis); test: Test A pre-/postemergence plant response; conditions: for Crabgrass, Large plant response rating: visual injury, 0 to 100 scale (0 no effect, 100 complete control), approx. ten days
Summary of the method: as §2

[11] = Postemergence, 125 g ai/ha, 0 to 100 scale where 0 is no effect and 100 is complete control
[12] = Preemergence, 125 g ai/ha, 0 to 100 scale, 0 = no effect, 100 = complete control
[13] = Preemergence, 500 g ai/ha, 0 to 100 scale, 0 = no effect, 100 = complete control

Row | SMILES | Plant response rating, Barnyardgrass [1] | Barnyardgrass plant response rating [1] | Plant response rating, Rice (rice (Oryza sativa)) | Rice plant response rating (rice (Oryza sativa)) | Plant response rating, Sedge, Umbrella [2] | Sedge, Umbrella plant response rating [2] | Plant response rating, Ducksalad [3] | Ducksalad plant response rating [3] | Plant response rating, Corn (corn (Zea mays); [11]) | Corn plant response rating (corn (Zea mays); Postemergence, 500 g ai/ha) | Plant response rating, Corn (corn (Zea mays); [12]) | Plant response rating, Corn (corn (Zea mays); [13]) | Plant response rating, Wheat [4, 11] | Wheat plant response rating ([4]; Postemergence, 500 g ai/ha) | Plant response rating, Wheat [4, 12] | Plant response rating, Wheat [4, 13] | Plant response rating, Barnyardgrass [5, 11] | Barnyardgrass plant response rating ([5]; Postemergence, 500 g ai/ha) | Plant response rating, Barnyardgrass [5, 12] | Plant response rating, Barnyardgrass [5, 13] | other results
1 | Cc1cc(F)ccc1-n1c(-c2cccc(Cl)c2)ncc(C(=O)C2=C(O)CCCC2=O)c1=O [Compound 167] | 20 | 0 | 0 | 0 | 60 | 20 | 70 | 0 | 30 | 30 | 0 | 0 | 0 | 0 | 0 | 0 | 60 | 100 | 0 | 30 | Plant response rating, Foxtail, Giant [6, 11]: 90; Foxtail, Giant plant response rating ([6]; Postemergence, 500 g ai/ha): 90; Plant response rating, Foxtail, Giant [6, 12]: 10; Plant response rating, Foxtail, Giant [6, 13]: 50; Plant response rating, Morningglory [7, 11]: 60; Morningglory plant response rating ([7]; Postemergence, 500 g ai/ha): 100; Plant response rating, Morningglory [7, 12]: 0; Plant response rating, Morningglory [7, 13]: 0; Plant response rating, Pigweed [8, 11]: 90; Pigweed plant response rating ([8]; Postemergence, 500 g ai/ha): 100; Plant response rating, Pigweed [8, 12]: 10; Plant response rating, Pigweed [8, 13]: 90; Plant response rating, Velvetleaf [9, 11]: 100; Velvetleaf plant response rating ([9]; Postemergence, 500 g ai/ha): 100; Plant response rating, Velvetleaf [9, 12]: 70; Plant response rating, Velvetleaf [9, 13]: 100; Plant response rating, Crabgrass, Large [10, 11]: 60; Crabgrass, Large plant response rating ([10]; Postemergence, 500 g ai/ha): 90; Plant response rating, Crabgrass, Large [10, 12]: 20; Plant response rating, Crabgrass, Large [10, 13]: 90
2 | C#CCn1c(-c2cc(F)cc(F)c2)ncc(C(=O)C2=C(O)CCCC2=O)c1=O [Compound 170] | 30 | 0 | 20 | 15 | 35 | 0 | 45 | 0 | 20 | 30 | 0 | 0 | 0 | 20 | 0 | 20 | 40 | 90 | 0 | 60 | Plant response rating, Foxtail, Giant [6, 11]: 50; Foxtail, Giant plant response rating ([6]; Postemergence, 500 g ai/ha): 80; Plant response rating, Foxtail, Giant [6, 12]: 10; Plant response rating, Foxtail, Giant [6, 13]: 70; Plant response rating, Morningglory [7, 11]: 100; Morningglory plant response rating ([7]; Postemergence, 500 g ai/ha): 100; Plant response rating, Morningglory [7, 12]: 0; Plant response rating, Morningglory [7, 13]: 70; Plant response rating, Pigweed [8, 11]: 80; Pigweed plant response rating ([8]; Postemergence, 500 g ai/ha): 100; Plant response rating, Pigweed [8, 12]: 30; Plant response rating, Pigweed [8, 13]: 50; Plant response rating, Velvetleaf [9, 11]: 100; Velvetleaf plant response rating ([9]; Postemergence, 500 g ai/ha): 100; Plant response rating, Velvetleaf [9, 12]: 10; Plant response rating, Velvetleaf [9, 13]: 80; Plant response rating, Crabgrass, Large [10, 11]: 60; Crabgrass, Large plant response rating ([10]; Postemergence, 500 g ai/ha): 90; Plant response rating, Crabgrass, Large [10, 12]: 10; Plant response rating, Crabgrass, Large [10, 13]: 70
3 | CCCn1c(-c2cccc(C)c2)ncc(C(=O)C2=C(O)CCCC2=O)c1=O [Compound 172] | 20 | 0 | 0 | 0 | 75 | 0 | 60 | 20 | 20 | 30 | 0 | 0 | 0 | 20 | 0 | 0 | 90 | 90 | 10 | 80 | Plant response rating, Foxtail, Giant [6, 11]: 60; Foxtail, Giant plant response rating ([6]; Postemergence, 500 g ai/ha): 90; Plant response rating, Foxtail, Giant [6, 12]: 10; Plant response rating, Foxtail, Giant [6, 13]: 60; Plant response rating, Morningglory [7, 11]: 90; Morningglory plant response rating ([7]; Postemergence, 500 g ai/ha): 100; Plant response rating, Morningglory [7, 12]: 0; Plant response rating, Morningglory [7, 13]: 50; Plant response rating, Pigweed [8, 11]: 100; Pigweed plant response rating ([8]; Postemergence, 500 g ai/ha): 100; Plant response rating, Pigweed [8, 12]: 10; Plant response rating, Pigweed [8, 13]: 100; Plant response rating, Velvetleaf [9, 11]: 100; Velvetleaf plant response rating ([9]; Postemergence, 500 g ai/ha): 100; Plant response rating, Velvetleaf [9, 12]: 50; Plant response rating, Velvetleaf [9, 13]: 80; Plant response rating, Crabgrass, Large [10, 11]: 60; Crabgrass, Large plant response rating ([10]; Postemergence, 500 g ai/ha): 80; Plant response rating, Crabgrass, Large [10, 12]: 10; Plant response rating, Crabgrass, Large [10, 13]: 90
4 | CCc1ccc(-n2c(-c3cccc(Br)c3)ncc(C(=O)C3=C(O)CCCC3=O)c2=O)cc1 [Compound 175] | 20 | 0 | 0 | 0 | 85 | 75 | 95 | 75 | 0 | 20 | 0 | 0 | 0 | 0 | 0 | 0 | 50 | 100 | 0 | 30 | Plant response rating, Foxtail, Giant [6, 11]: 30; Foxtail, Giant plant response rating ([6]; Postemergence, 500 g ai/ha): 80; Plant response rating, Foxtail, Giant [6, 12]: 0; Plant response rating, Foxtail, Giant [6, 13]: 50; Plant response rating, Morningglory [7, 11]: 10; Morningglory plant response rating ([7]; Postemergence, 500 g ai/ha): 80; Plant response rating, Morningglory [7, 12]: 0; Plant response rating, Morningglory [7, 13]: 10; Plant response rating, Pigweed [8, 11]: 100; Pigweed plant response rating ([8]; Postemergence, 500 g ai/ha): 100; Plant response rating, Pigweed [8, 12]: 60; Plant response rating, Pigweed [8, 13]: 100; Plant response rating, Velvetleaf [9, 11]: 100; Velvetleaf plant response rating ([9]; Postemergence, 500 g ai/ha): 100; Plant response rating, Velvetleaf [9, 12]: 40; Plant response rating, Velvetleaf [9, 13]: 50; Plant response rating, Crabgrass, Large [10, 11]: 40; Crabgrass, Large plant response rating ([10]; Postemergence, 500 g ai/ha): 80; Plant response rating, Crabgrass, Large [10, 12]: 30; Plant response rating, Crabgrass, Large [10, 13]: 50
